Source: BindingDB's records for doi:10.1016/S1074-5521(01)00045-X (The Scripps Research Institute, 2001)
Changes are numbered by the printed parent chain.

Experiments:
Assay in all cases: Inhibition Assay
[1] = molecular target: T1, Beta-hexosaminidase subunit beta (Homo sapiens, UniProt P07686)
T1 sequence (P07686 whole entry): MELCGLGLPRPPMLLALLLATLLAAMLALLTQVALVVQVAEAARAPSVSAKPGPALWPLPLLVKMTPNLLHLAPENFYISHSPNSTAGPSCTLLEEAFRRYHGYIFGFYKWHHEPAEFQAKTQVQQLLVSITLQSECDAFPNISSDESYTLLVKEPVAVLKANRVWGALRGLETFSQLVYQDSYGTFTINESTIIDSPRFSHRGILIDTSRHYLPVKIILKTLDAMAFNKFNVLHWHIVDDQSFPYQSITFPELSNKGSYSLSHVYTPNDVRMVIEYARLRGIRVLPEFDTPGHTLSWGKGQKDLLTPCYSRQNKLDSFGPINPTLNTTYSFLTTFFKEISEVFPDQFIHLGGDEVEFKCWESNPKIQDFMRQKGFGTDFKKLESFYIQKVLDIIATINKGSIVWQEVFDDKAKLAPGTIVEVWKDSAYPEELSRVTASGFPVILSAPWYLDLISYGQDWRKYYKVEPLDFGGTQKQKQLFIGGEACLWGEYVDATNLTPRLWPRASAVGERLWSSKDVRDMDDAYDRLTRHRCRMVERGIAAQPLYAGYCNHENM
Procedure: (§1) Hexosaminidase activity assay was measured by fluorometry, VersaFluor Fluorometer from Bio-Rad.

[2] = molecular target: T2, Beta-hexosaminidase subunit beta (Homo sapiens, UniProt P07686); remark: listed apart in the source
T2 sequence (P07686 whole entry): T1 sequence (P07686 whole entry) with L62S
Procedure: as §1

[3] = molecular target: T3, Beta-hexosaminidase subunit alpha (Homo sapiens, UniProt P06865)
T3 sequence (P06865 whole entry): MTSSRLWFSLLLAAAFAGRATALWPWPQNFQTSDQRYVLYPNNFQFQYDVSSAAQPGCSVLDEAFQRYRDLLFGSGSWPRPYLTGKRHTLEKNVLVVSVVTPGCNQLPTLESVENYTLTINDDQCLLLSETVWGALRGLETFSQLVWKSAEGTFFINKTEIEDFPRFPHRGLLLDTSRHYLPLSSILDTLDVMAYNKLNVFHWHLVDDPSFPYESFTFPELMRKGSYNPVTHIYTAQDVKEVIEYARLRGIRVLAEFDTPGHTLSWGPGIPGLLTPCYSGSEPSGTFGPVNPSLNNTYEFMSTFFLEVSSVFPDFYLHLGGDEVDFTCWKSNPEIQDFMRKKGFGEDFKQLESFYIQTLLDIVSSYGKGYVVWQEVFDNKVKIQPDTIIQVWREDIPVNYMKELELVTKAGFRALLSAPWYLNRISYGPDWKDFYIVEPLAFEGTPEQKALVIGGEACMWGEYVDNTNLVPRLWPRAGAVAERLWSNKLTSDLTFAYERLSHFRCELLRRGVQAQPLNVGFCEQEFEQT
Procedure: as §1

In the case of `CC(=O)N[C@H]1CN[C@H](CO)[C@@H](O)[C@@H]1O`, the Ki [1] is reported as 1200 nM.

`CC(=O)N[C@@H]1N[C@H](CO)[C@@H](O)[C@@H]1O` [Iminocyclitol, 1] showed a Ki [2] of 240 nM.

In the case of `CC(=O)N[C@H]1[C@@H](O)[C@H](O)[C@@H](CO)N1C` [Iminocyclitol, 2], the Ki [2] is reported as 65 nM.

`CC(=O)N[C@H]1N[C@H](CO)[C@@H](O)[C@@H]1O` [Iminocyclitol, 3] gave a Ki [2] of 40 nM.

For `CC(=O)N[C@@H]1[C@@H](O)[C@H](O)[C@@H](CO)N1C` [Iminocyclitol, 4], the Ki [2] was 24 nM.

Molecule `CC(=O)NC1CN(C)C(CO)C(O)C1O` (stereo not given) [Iminocyclitol, 6] has a Ki [2] of 860 nM.

`CC(=O)N[C@@H]1[C@@H](O)[C@H](O)[C@@H](OS(=O)(=O)O)N1C` [Iminocyclitol, 8] gave a Ki [3] of 100 nM and a Ki [2] of 5000 nM.

Molecule `CC1=NC2C(OC(OS(=O)(=O)O)C(O)C2O)S1` (stereo not given) [Iminocyclitol, 10] has a Ki [3] of 10000 nM and a Ki [2] of 100000 nM.
